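Step 1: Grow cells in 96-well plates. Step 2: Expose to compound for 48 hours at 5 concentrations. Step 3: Interpolate endpoints linearly; if unreached, use highest concentration. GI50 = concentration required for 50% inhibition of growth.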 Active and inactive are the calls of the source. Rule as the data show it: active = GI50 up to about 1.1 µM and inactive = higher.
Key:
Experiment in all cases: growth of human tumour cells (NCI), 48 h
[1] = tested on: DLD-1
[2] = tested on: RXF 631
[3] = tested on: SNB-78
[4] = tested on: M19-MEL
[5] = tested on: KM-20L2
[6] = tested on: LXFL 529
[7] = tested on: DMS-273
[8] = tested on: XF498
[9] = tested on: BT-549

Structure (SMILES)	GI50 [1]	GI50 [3]	GI50 [4]	GI50 [9]	also measured
COc1ccc(NC(=O)C2C(=O)N(c3ccc(OC)cc3)C(=O)/C2=N\N)cc1 (stereo unspecified)	> 100 µM (inactive)	> 100 µM (inactive)	> 100 µM (inactive)	–	GI50 [2]: > 100 µM (inactive); GI50 [5]: > 100 µM (inactive); GI50 [6]: > 100 µM (inactive)
CC1CC2OC(=O)C3CC(O)CC(=C23)[C@@]12C[C@@H](c1ccoc1)OC2=O (stereo partly specified)	> 100 µM (inactive)	> 100 µM (inactive)	> 100 µM (inactive)	–	GI50 [7]: > 100 µM (inactive); GI50 [8]: > 100 µM (inactive); GI50 [5]: > 100 µM (inactive); GI50 [6]: > 100 µM (inactive)
Fc1ccc(Nc2nc(Cl)c3nc[nH]c3n2)cc1Cl	–	–	–	> 100 µM (inactive)	–
CCN(CCCOc1ccccc1)CCN(CC)CCCOc1ccccc1	–	–	–	14.3 µM (inactive)	–
COc1c(C2(c3ccc(F)cc3)SCCCS2)c(=O)c1=O	–	–	–	> 100 µM (inactive)	–
Cc1ccc([N+](=O)[O-])cc1NC(=O)C(=O)Cc1cc(=O)oc2cc(O)ccc12	> 100 µM (inactive)	> 100 µM (inactive)	> 100 µM (inactive)	–	GI50 [8]: > 100 µM (inactive); GI50 [5]: 63.7 µM (inactive); GI50 [6]: 56.5 µM (inactive)
CC(=O)OCC1=C(CCC#N)N2C(=O)C(NC(=O)Cc3cccs3)C2[S+]([O-])C1 (stereo unspecified)	> 100 µM (inactive)	> 100 µM (inactive)	> 100 µM (inactive)	–	GI50 [7]: > 100 µM (inactive); GI50 [8]: > 100 µM (inactive); GI50 [5]: > 100 µM (inactive)
Cc1nc(C(N)=S)sc1C(=O)C/C(=N/N)C(=O)Nc1cccc(Cl)c1C	–	–	–	> 100 µM (inactive)	–
Oc1ccc2ccccc2c1/N=N/c1cc(Cl)ccc1Cl	–	–	–	> 50 µM (inactive)	–
CC1=C(CCC(C)CO)O[C@H]2C[C@H]3[C@@H]4CC[C@H]5C[C@@H](O)CC[C@]5(C)[C@H]4CC(=O)[C@]3(C)[C@@H]12 (stereo partly specified)	–	–	–	16 µM (inactive)	–
CC1OC(OC2C(O[C@H]3CC[C@@]4(C)C(=CC[C@H]5[C@@H]6C[C@@H]7O[C@]8(CC[C@@H](CO)CO8)[C@@H](C)[C@@H]7[C@@]6(C)CC[C@@H]54)C3)OC(CO)C(O)C2OC2OC(CO)C(O)C(O)C2O)C(O)C(O)C1O (stereo partly specified)	–	–	–	> 10 µM (inactive)	–
N/C(=N\Nc1cccc(Cl)c1)c1cccnc1	–	–	–	> 69 µM (inactive)	–
O=C1C(C(O)(C(F)(F)Cl)C(F)(F)Cl)CCCC1C(O)(C(F)(F)Cl)C(F)(F)Cl (stereo unspecified)	–	–	–	> 10 µM (inactive)	–
C=CCCC12CCCC(=O)C1Sc1ccc3ccccc3c12 (stereo unspecified)	22.4 µM (inactive)	20.8 µM (inactive)	24.1 µM (inactive)	–	GI50 [2]: 11.6 µM (inactive); GI50 [7]: 5.38 µM (inactive); GI50 [6]: 15.2 µM (inactive)
Cc1ccc(/N=N/c2ccc(O)c(CN(C)C)c2)cc1C	–	–	–	25.6 µM (inactive)	–
CCOC(=O)Oc1ccc2c(c1)c(=O)c1c(NCCN(CC)CC)ccc3nnn2c31	–	–	–	10.5 µM (inactive)	–

Structure (SMILES)	GI50 [1]	GI50 [3]	GI50 [4]	GI50 [9]	also measured
Cc1ccc(C[N+](C)(C)N)cc1C	–	–	–	> 10 µM (inactive)	–
CSc1ccc(OCC2OC2O)cc1 (stereo unspecified)	45.7 µM (inactive)	> 100 µM (inactive)	37.7 µM (inactive)	–	GI50 [7]: 34.2 µM (inactive); GI50 [8]: 30.5 µM (inactive); GI50 [5]: 46.2 µM (inactive); GI50 [6]: 29 µM (inactive)
Clc1ccc(SCCSCCCCCCCCCCSCCSc2ccc(Cl)cc2)cc1	> 100 µM (inactive)	> 100 µM (inactive)	–	–	GI50 [2]: > 100 µM (inactive); GI50 [7]: > 100 µM (inactive); GI50 [5]: > 100 µM (inactive)
CCOC(=O)C1(Cc2ccc3c(c2)CCC3)Cc2cc3c(cc2C1)CCC3	–	–	–	90.4 µM (inactive)	–
CC1(C(=O)O)CCOc2ccccc21 (stereo unspecified)	> 100 µM (inactive)	> 100 µM (inactive)	> 100 µM (inactive)	–	GI50 [5]: > 100 µM (inactive); GI50 [6]: > 100 µM (inactive)
COc1cc2c(c(OC)c1OC)-c1ccc(SC)c(=O)cc1[C@@H](NC(=O)c1ccc(C#N)cc1)CC2	< 0.01 µM (active)	< 0.01 µM (active)	< 0.01 µM (active)	–	GI50 [7]: < 0.01 µM (active); GI50 [8]: < 0.01 µM (active); GI50 [5]: < 0.01 µM (active); GI50 [6]: < 0.01 µM (active)
COc1cc(C2C3=C(COC3=O)Oc3cc4c(cc32)OCO4)ccc1O (stereo unspecified)	–	–	–	1.1 µM (active)	–
NC12c3c4cccc3Oc3cccc(c31)Oc1cccc(c12)O4	–	–	–	> 50 µM (inactive)	–
COc1ccc(Nc2nc3ccc(C(F)(F)F)cc3nc2C(=O)O)cc1OC	–	–	–	22.5 µM (inactive)	–
COC(=O)/C([Se]c1c(C)cc(C)cc1C)=C(/[Se]c1c(C)cc(C)cc1C)C(=O)OC	> 100 µM (inactive)	> 100 µM (inactive)	> 100 µM (inactive)	–	GI50 [2]: > 100 µM (inactive); GI50 [7]: > 100 µM (inactive); GI50 [5]: > 100 µM (inactive); GI50 [6]: > 100 µM (inactive)
C[N+]1(C)C2Cc3ccccc3C1Cc1ccccc12	–	–	–	> 100 µM (inactive)	–
O=C1/C(=C/c2n[nH]cc2-c2ccc(Cl)cc2)C(=O)N(c2ccccc2)C1c1ccccc1 (stereo unspecified)	–	–	–	14.6 µM (inactive)	–
C=C1CC2(C[C@@H](c3ccccc3)O[C@@H](c3ccccc3)C2)OC1=O (stereo partly specified)	–	–	–	1.76 µM (inactive)	–
Cc1nc(=O)n2c(c1C(=O)Nc1ccc(Cl)cc1)NCCC2	–	> 100 µM (inactive)	> 100 µM (inactive)	–	GI50 [8]: > 100 µM (inactive); GI50 [6]: > 100 µM (inactive)
CCCCCCCCCCCCOCCCCCCCCC/C=C/c1ccc2c(c1)OCCOCCOCCOCCO2	–	–	–	23.4 µM (inactive)	–

— ChEMBL document CHEMBL1201862, “PubChem BioAssay data set” (2004)
